Peptide text beside a SMILES is read from it.
Experiment: MTT cell viability (cytotoxicity)
Assay type: cell-based
Details: human, Caco-2 cells (1 × 10^4), synthetic peptides 0.05 mg/mL, no TbOOH, mean ± SD of at least three experiments, read-out: Percentage of Cell Viability, None (c)

**Q.** Which viability at 24 h, 50 µg/mL does the source give for `CC(C)C[C@H](NC(=O)[C@@H](NC(=O)[C@H](CCCCN)NC(=O)[C@H](CO)NC(=O)[C@H](CCC(N)=O)NC(=O)[C@@H](N)CO)C(C)C)C(=O)N1CCC[C@H]1C(=O)N[C@H](C(=O)N1CCC[C@H]1C(=O)N[C@@H](CCC(N)=O)C(=O)N[C@@H](CCCCN)C(=O)N[C@@H](C)C(=O)N[C@H](C(=O)N1CCC[C@H]1C(=O)N[C@@H](Cc1ccc(O)cc1)C(=O)N1CCC[C@H]1C(=O)N[C@@H](CCC(N)=O)C(=O)O)C(C)C)C(C)C` [S-17-Q] (H-SQSKVLPVPQKAVPYPQ-OH) here?
**A.** 101 ± 7.46%

**Q.** For `CC(C)C[C@H](NC(=O)[C@H](Cc1ccccc1)NC(=O)[C@@H]1CCCN1C(=O)[C@@H]1CCCN1C(=O)[C@@H](NC(=O)[C@@H](N)C(C)C)C(C)C)C(=O)N[C@@H](CCC(N)=O)C(=O)N1CCC[C@H]1C(=O)N[C@@H](CCC(=O)O)C(=O)O` [V-9-E] (H-VVPPFLQPE-OH), which viability at 24 h, 50 µg/mL is on record?
**A.** 107 ± 8.02%

**Q.** For `CC[C@H](C)[C@H](NC(=O)[C@@H]1CCCN1C(=O)CNC(=O)[C@@H]1CCCN1C(=O)[C@H](Cc1ccccc1)NC(=O)[C@@H]1CCCN1C(=O)[C@H](Cc1ccc(O)cc1)NC(=O)[C@@H](N)C(C)C)C(=O)N1CCC[C@H]1C(=O)N[C@@H](CC(N)=O)C(=O)O` [V-10-N] (H-VYPFPGPIPN-OH), which viability at 24 h, 50 µg/mL is on record?
**A.** 111 ± 9.93%

**Q.** For `CC[C@H](C)[C@H](NC(=O)[C@H](CCC(=O)O)NC(=O)[C@@H]1CCCN1C(=O)[C@@H]1CCCN1C(=O)[C@H](CO)NC(=O)[C@H](CCC(=O)O)NC(=O)[C@@H](NC(=O)[C@@H](N)C(C)C)[C@@H](C)CC)C(=O)N[C@@H](CC(N)=O)C(=O)N[C@H](C(=O)N[C@H](C(=O)N[C@@H](CCC(N)=O)C(=O)O)C(C)C)[C@@H](C)O` [V-12-Q] (H-VIESPPEINTVQ-OH), which viability at 24 h, 50 µg/mL is on record?
**A.** 113 ± 3.52%

Reference: paper PMC7070694, “Identification of New Peptides from Fermented Milk Showing Antioxidant Properties: Mechanism of Action” (Antioxidants, 2020)
